# Laboratory results as given in patent publication US20240199558A1, “2,4,6-TRISUBSTITUTED 1,3,5-TRIAZINES AS MODULATORS OF CX3CR1” (ASTRAZENECA AB, priority 2022, published 2024).
# Biological target: CX3CR1 (Homo sapiens (Human), UniProt P49238)
# Experiment: hCX3CR1 [3H]-AZD8797 competitive binding assay (filter)
# Settings: CHO-hCX3CR1 membranes, 2 nM [3H]-AZD8797
# Method: hCX3CR1 [^3H]-AZD8797 Competitive Binding Assay (Filter)
# CHO-hCX3CR1 membranes (9 μg per well) together with 2 nM [^3H]-AZD8797 and different concentrations of competitor compound were incubated in 25 mM HEPES (pH 7.4), 10 mM MgCl2, 1 mM CaCl2) and 0.5% BSA in a Corning polystyrene flat-bottom 96-well plate. The plate was incubated for 2 h at room temperature before free radioligand was separated from bound by vacuum filtration on to a Multiscreen HTS+HiFlow FB (Millipore) filter plate, using a Biomek FX (Beckman Coulter). The filter plate was washed in ice-cold 25 mM HEPES (pH 7.4), 5 mM MgCl2, 1 mM CaCl2) and 500 mM NaCl and dried at 50° C. for 1 h. Scintillation cocktail, Optiphase Supermix (PerkinElmer) was added to each well and the radioactivity was measured using a MicroBeta Trilux reader (PerkinElmer). The DMSO concentration was held constant at 1%.
# Sequence of CX3CR1 (P49238 whole entry): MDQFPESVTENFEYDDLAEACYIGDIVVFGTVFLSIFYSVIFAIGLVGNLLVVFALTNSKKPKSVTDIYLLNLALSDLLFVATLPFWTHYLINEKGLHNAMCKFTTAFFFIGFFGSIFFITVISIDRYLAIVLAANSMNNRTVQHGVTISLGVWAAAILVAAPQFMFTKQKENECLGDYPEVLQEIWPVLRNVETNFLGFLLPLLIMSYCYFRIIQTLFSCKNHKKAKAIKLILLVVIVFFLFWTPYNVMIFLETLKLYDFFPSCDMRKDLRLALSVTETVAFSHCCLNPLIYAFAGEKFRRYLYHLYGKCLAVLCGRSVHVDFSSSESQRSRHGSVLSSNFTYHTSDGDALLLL
row,IC50,SMILES
1,173 nM,"CC(C)C[C@H](CO)Nc1nc(C[C@@H](C)c2c(F)cc(Cl)cc2F)nc(NS(C)(=O)=O)n1 (single isomer, unassigned) [Example 44, N-(4-((R*)-2-(4-Chloro-2,6-difluorophenyl)propyl)-6-(((R)-1-hydroxy-4-methylpentan-2-yl)amino)-1,3,5-triazin-2-yl)methanesulfonamide]"
2,63 nM,"CC[C@H](Cc1nc(N[C@@H](CO)CC(C)C)nc(NS(C)(=O)=O)n1)c1cccc(F)c1F (single isomer, unassigned) [Example 47, N-(4-((R*)-2-(2,3-Difluorophenyl)butyl)-6-(((R)-1-hydroxy-4-methylpentan-2-yl)amino)-1,3,5-triazin-2-yl)methanesulfonamide]"
3,309 nM,"CC[C@@H](Cc1nc(N[C@@H](CO)CC(C)C)nc(NS(C)(=O)=O)n1)c1cccc(F)c1F (single isomer, unassigned) [Example 48, N-(4-((S*)-2-(2,3-Difluorophenyl)butyl)-6-(((R)-1-hydroxy-4-methylpentan-2-yl)amino)-1,3,5-triazin-2-yl)methanesulfonamide]"
4,4200 nM,"CC(C)C[C@H](CO)Nc1nc(C[C@H](C)c2ccc(F)c(Cl)c2)nc(NS(C)(=O)=O)n1 (single isomer, unassigned) [Example 65, N-(4-((S*)-2-(3-Chloro-4-fluorophenyl)propyl)-6-(((R)-1-hydroxy-4-methylpentan-2-yl)amino)-1,3,5-triazin-2-yl)methanesulfonamide]"
5,222 nM,"CC(C)C[C@H](CO)Nc1nc(C[C@@H](C)c2ccc(F)c(Cl)c2)nc(NS(C)(=O)=O)n1 (single isomer, unassigned) [Example 66, N-(4-((R*)-2-(3-Chloro-4-fluorophenyl)propyl)-6-(((R)-1-hydroxy-4-methylpentan-2-yl)amino)-1,3,5-triazin-2-yl)methanesulfonamide]"
6,3250 nM,"CC(C)C[C@H](CO)Nc1nc(C[C@H](C)c2c(F)cccc2F)nc(NS(C)(=O)=O)n1 (single isomer, unassigned) [Example 77, N-(4-((S*)-2-(2,6-Difluorophenyl)propyl)-6-(((R)-1-hydroxy-4-methylpentan-2-yl)amino)-1,3,5-triazin-2-yl)methanesulfonamide]"
7,22 nM,"CC(C)C[C@H](CO)Nc1nc(C[C@@H](C)c2c(F)cccc2F)nc(NS(C)(=O)=O)n1 (single isomer, unassigned) [Example 78, N-(4-((R*)-2-(2,6-Difluorophenyl)propyl)-6-(((R)-1-hydroxy-4-methylpentan-2-yl)amino)-1,3,5-triazin-2-yl)methanesulfonamide]"
8,73 nM,"COc1ccc([C@@H](C)Cc2nc(N[C@@H](CO)CC(C)C)nc(NS(C)(=O)=O)n2)c(F)n1 (single isomer, unassigned) [Example 86, N-(4-((S*)-2-(2-Fluoro-6-methoxypyridin-3-yl)propyl)-6-(((R)-1-hydroxy-4-methylpentan-2-yl)amino)-1,3,5-triazin-2-yl)methanesulfonamide]"
9,474 nM,"CCC(Cc1nc(N[C@@H](CO)CC(C)C)nc(NS(C)(=O)=O)n1)c1cnc(OC)cc1F (stereo partly drawn) [Example 49, N-(4-(2-(4-Fluoro-6-methoxypyridin-3-yl)butyl)-6-(((R)-1-hydroxy-4-methylpentan-2-yl)amino)-1,3,5-triazin-2-yl)methanesulfonamide]"
10,204 nM,"Cc1ccc(C(C)Cc2nc(N[C@@H](CO)CC(C)C)nc(NS(C)(=O)=O)n2)cc1F (stereo partly drawn) [Example 56, N-(4-(2-(3-Fluoro-4-methylphenyl)propyl)-6-(((R)-1-hydroxy-4-methylpentan-2-yl)amino)-1,3,5-triazin-2-yl)methanesulfonamide]"

# More lines, now with the values behind:
row,SMILES,IC50
1,"COc1cc(F)c([C@@H](C)Cc2nc(N[C@@H](CO)CC(C)C)nc(NS(C)(=O)=O)n2)cn1 (single isomer, unassigned) [Example 45, N-(4-((S*)-2-(4-Fluoro-6-methoxypyridin-3-yl)propyl)-6-(((R)-1-hydroxy-4-methylpentan-2-yl)amino)-1,3,5-triazin-2-yl)methanesulfonamide]",765 nM
2,"CC(C)C[C@H](CO)Nc1nc(C[C@H](C)c2ccc(N)nc2)nc(NS(C)(=O)=O)n1 (single isomer, unassigned) [Example 50, N-(4-((S*)-2-(6-Aminopyridin-3-yl)propyl)-6-(((R)-1-hydroxy-4-methylpentan-2-yl)amino)-1,3,5-triazin-2-yl)methanesulfonamide]",342 nM
3,"CC(C)C[C@H](CO)Nc1nc(C[C@@H](C)c2ccc(N)nc2)nc(NS(C)(=O)=O)n1 (single isomer, unassigned) [Example 51, N-(4-((R*)-2-(6-Aminopyridin-3-yl)propyl)-6-(((R)-1-hydroxy-4-methylpentan-2-yl)amino)-1,3,5-triazin-2-yl)methanesulfonamide]",30 nM
4,"CC(C)C[C@H](CO)Nc1nc(C[C@H](C)c2ccnc(F)c2)nc(NS(C)(=O)=O)n1 (single isomer, unassigned) [Example 90, N-(4-((S*)-2-(2-Fluoropyridin-4-yl)propyl)-6-(((R)-1-hydroxy-4-methylpentan-2-yl)amino)-1,3,5-triazin-2-yl)methanesulfonamide]",1700 nM
5,"CC(C)C[C@H](CO)Nc1nc(C[C@@H](C)c2ccnc(F)c2)nc(NS(C)(=O)=O)n1 (single isomer, unassigned) [Example 91, N-(4-((R*)-2-(2-Fluoropyridin-4-yl)propyl)-6-(((R)-1-hydroxy-4-methylpentan-2-yl)amino)-1,3,5-triazin-2-yl)methanesulfonamide]",34 nM
6,"CC(C)C[C@H](CO)Nc1nc(CC(C)c2ccc(C#N)cc2)nc(NS(C)(=O)=O)n1 (single isomer, unassigned) [Example 164, N-(4-((S*)-2-(4-Cyanophenyl)propyl)-6-(((R)-1-hydroxy-4-methylpentan-2-yl)amino)-1,3,5-triazin-2-yl)methanesulfonamide]",1500 nM
7,"CC(C)C[C@H](CO)Nc1nc(CC(C)c2ccc(C#N)cc2)nc(NS(C)(=O)=O)n1 (single isomer, unassigned) [Example 165, N-(4-((R*)-2-(4-Cyanophenyl)propyl)-6-(((R)-1-hydroxy-4-methylpentan-2-yl)amino)-1,3,5-triazin-2-yl)methanesulfonamide]",283 nM
8,"CC(C)C[C@H](CO)Nc1nc(C[C@H](C)c2ccc(Cl)cc2)nc(NS(C)(=O)=O)n1 (single isomer, unassigned) [Example 171, N-(4-((R*)-2-(4-Chlorophenyl)propyl)-6-(((R)-1-hydroxy-4-methylpentan-2-yl)amino)-1,3,5-triazin-2-yl)methanesulfonamide]",771 nM
9,"CC(C)C[C@H](CO)Nc1nc(CC(C)c2ccc(N3CCNCC3)cc2)nc(NS(C)(=O)=O)n1 (stereo partly drawn) [Example 54, N-(4-(((R)-1-Hydroxy-4-methylpentan-2-yl)amino)-6-(2-(4-(piperazin-1-yl)phenyl)propyl)-1,3,5-triazin-2-yl)methanesulfonamide]",153 nM
10,"CC(C)C[C@H](CO)Nc1nc(CC(C)c2ccc(CC#N)cc2)nc(NS(C)(=O)=O)n1 (stereo partly drawn) [Example 55, N-(4-(2-(4-(Cyanomethyl)phenyl)propyl)-6-(((R)-1-hydroxy-4-methylpentan-2-yl)amino)-1,3,5-triazin-2-yl)methanesulfonamide]",139 nM
